From patent US5618812A, “Benzodiazepine derivatives” (Merck Sharp & Dohme, Ltd., priority 1992, dated 1997)
Like-named read-outs stand apart in the source and are kept apart here.

Columns and labels:
CCK-A = biological target: T1, CCK-A (Rattus norvegicus, UniProt P30551); assay: biochemical; assay type: binding; settings: rat pancreas (CCK-A), 125I-CCK; read-out: CCK RECEPTOR BINDING RESULTS IC50 125I-CCK Pancreas
T1 sequence (P30551 1-444): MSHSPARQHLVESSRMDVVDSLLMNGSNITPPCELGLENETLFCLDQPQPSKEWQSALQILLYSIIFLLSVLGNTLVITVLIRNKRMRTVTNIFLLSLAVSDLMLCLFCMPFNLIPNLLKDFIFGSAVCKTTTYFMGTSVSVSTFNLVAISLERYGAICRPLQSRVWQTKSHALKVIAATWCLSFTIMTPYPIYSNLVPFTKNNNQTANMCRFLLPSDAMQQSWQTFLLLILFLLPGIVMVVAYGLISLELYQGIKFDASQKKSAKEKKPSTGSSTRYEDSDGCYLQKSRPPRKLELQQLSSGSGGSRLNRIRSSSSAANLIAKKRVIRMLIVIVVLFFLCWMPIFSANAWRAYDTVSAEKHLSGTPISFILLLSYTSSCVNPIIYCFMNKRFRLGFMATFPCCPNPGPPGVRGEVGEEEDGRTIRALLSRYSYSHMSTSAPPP
Protocol: (§1) The CCK-A and CCK-B antagonising activity of the compounds described herein was evaluated using the assays described in published European patent application no. 0514133. The method essentially involves determining the concentration of the test compound required to displace 50% of the specific ^125 I-CCK from rat pancreas (CCK-A) or guinea pig brain (CCK-B).

CCK-B = biological target: T2, CCK-B (Cavia porcellus, UniProt H0VZC5); assay: displacement of specific 125I-CCK from guinea pig brain (CCK-B receptor binding)
T2 construct: guinea pig brain (CCK-B); from tissue; host or cells: guinea pig brain
T2 sequence (H0VZC5 1-426): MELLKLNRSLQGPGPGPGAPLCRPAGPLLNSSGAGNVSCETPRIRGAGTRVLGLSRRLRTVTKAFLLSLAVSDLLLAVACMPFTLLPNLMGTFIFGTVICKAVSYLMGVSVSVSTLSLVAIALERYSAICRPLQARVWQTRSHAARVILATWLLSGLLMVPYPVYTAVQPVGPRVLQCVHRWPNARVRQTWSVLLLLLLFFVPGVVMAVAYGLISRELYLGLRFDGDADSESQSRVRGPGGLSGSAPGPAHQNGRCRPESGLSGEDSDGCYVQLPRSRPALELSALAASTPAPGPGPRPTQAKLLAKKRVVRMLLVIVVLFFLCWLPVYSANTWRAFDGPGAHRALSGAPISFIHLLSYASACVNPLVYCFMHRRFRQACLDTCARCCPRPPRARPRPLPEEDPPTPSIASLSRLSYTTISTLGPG
Protocol: as §1, with “(CCK-B). The data in Table 1 were obtained for compounds of the Examples.” for “(CCK-B).”

[1] = read-out: CCK RECEPTOR BINDING RESULTS IC50 125I-CCK Brain

| IC50 (CCK-A) | IC50 (CCK-B; [1]) | SMILES | IC50 (CCK-B; CCK RECEPTOR BINDING RESULTS IC50 125I-CCK Brain) |
| --- | --- | --- | --- |
| 46 nM | 50 nM | Cc1cccc(NC(=O)NC2N=C(N3[C@H](C)C[C@H](C)C[C@@H]3C)c3ccccc3N(C)C2=O)c1 (single isomer, unassigned) [24 (enantiomer B)] |  |
| 94.1 nM | 148 nM | CC1CCN(C2=NC(NC(=O)Nc3cccc(N4CCN(C)CC4)c3)C(=O)N(C)c3ccccc32)CC1 (racemic) [Example 96, N-[3(R,S)-2,3-Dihydro-1-methyl-5-(4-methylpiperidin-1-yl)-2-oxo-1H-1,4-benzodiazepin-3-yl]N'-[3-(N-methyl-N'-piperazinyl)phenyl]urea] |  |
| 27.2 nM | 0.2 nM | CCCN1C(=O)C(NC(=O)Nc2cccc(C)c2)N=C(N2CCC(C)CC2)c2ccccc21 (racemic) [Example 17, N-[3(R,S)-2,3-Dihydro-5-(4-methylpiperidin-1-yl)-2-oxo-1-propyl-1H-1,4-benzodiazepin-3-yl]N'-[3-methylphenyl]urea] |  |
| 3290 nM | 1.52 nM | Cc1cccc(NC(=O)NC2N=C(N3CCC(C(F)(F)F)CC3)c3ccccc3N(C)C2=O)c1 (single isomer, unassigned) [20 (enantiomer A)] |  |
| 135 nM | 81.1 nM | Cc1cccc(NC(=O)NC2N=C(N(C)C3CCC(C)(C)CC3)c3ccccc3N(C)C2=O)c1 (racemic) [Example 77, N-[3(R,S)-5-(N-(4,4-Dimethylcyclohexyl)-N-methylamino)-2,3-dihydro-1-methyl-2-oxo-1H-1,4-benzodiazepin-3-yl]-N'-[3-methylphenyl]urea] |  |

| SMILES | IC50 (CCK-A) | IC50 (CCK-B; [1]) | IC50 (CCK-B; CCK RECEPTOR BINDING RESULTS IC50 125I-CCK Brain) |
| --- | --- | --- | --- |
| CN1C(=O)C(NC(=O)Nc2cccc(F)c2)N=C(N2CC3CCC(CC3)C2)c2ccccc21 (racemic) [Example 35, N-[3(R,S)-5-(3-Azabicyclo[3,2,2]nonan-3-yl)-2,3-dihydro-1-methyl-2-oxo-1H-1,4-benzodiazepin-3-yl]-N'-[3-fluorophenyl]urea] | 39.6 nM |  | 0.82 nM |
